The source made the active and inactive calls. Where only a bound is given, the exact number is not on record here.

The target of test [1] is T1, Adenosylmethionine-8-amino-7-oxononanoate aminotransferase (Mycobacterium tuberculosis, UniProt P9WQ81).
T1 sequence (P9WQ81 whole entry): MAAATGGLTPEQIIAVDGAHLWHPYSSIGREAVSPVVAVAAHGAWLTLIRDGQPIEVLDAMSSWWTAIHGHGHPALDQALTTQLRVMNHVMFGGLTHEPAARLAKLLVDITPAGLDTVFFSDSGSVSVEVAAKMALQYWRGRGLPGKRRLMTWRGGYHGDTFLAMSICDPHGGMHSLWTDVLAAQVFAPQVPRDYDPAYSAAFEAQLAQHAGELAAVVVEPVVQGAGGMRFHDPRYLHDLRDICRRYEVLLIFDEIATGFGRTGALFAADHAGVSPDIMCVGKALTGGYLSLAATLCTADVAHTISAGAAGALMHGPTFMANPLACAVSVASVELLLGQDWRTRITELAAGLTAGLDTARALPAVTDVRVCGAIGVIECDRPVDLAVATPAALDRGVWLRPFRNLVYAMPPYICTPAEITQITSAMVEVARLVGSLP
The test is described as follows: Mycobacterium tuberculosis BioA enzyme inhibitor Measured in Biochemical System Using Plate Reader - 2163-02_Inhibitor_Dose_CherryPick_Activity. Format: functional, Mycobacterium tuberculosis UT205.

Test [2] can be described thus: intracellular Trypanosoma cruzi inhibitors in host cells – cell-based, plate reader, cherry-pick samples, set 3, dose response (AID 651818).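 Also: compounds incubated with infected cells for about four days.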 Format: functional.
In test [3] the target is Heat shock protein HSP 90-alpha (Homo sapiens, UniProt P07900). Format: functional, organism-based.
The target of test [4] is T2, Fatty acid synthase (Homo sapiens, UniProt P49327). The test is described as follows: inhibition of human FAS-TE enzyme activity – biochemical, endpoint fluorescence intensity, uHTS hits, dose response (AID 624327).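 Also: fluorescence from hydrolysis of an O-methyl fluorescein acyl ester substrate by the enzyme.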 Format: functional.
Test [5] concerns the target T2, Fatty acid synthase. The experiment in a line: inhibition of human FAS-TE enzyme activity – biochemical, kinetic fluorescence intensity, dose response (AID 624326).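 Also: rate of fluorescence rise from hydrolysis of a fluorogenic O-methyl fluorescein ester substrate.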 The test is classed as functional.
In test [6] the target is T3, DNA repair and recombination protein RAD54-like (Homo sapiens, UniProt Q92698).
T3 sequence (Q92698 whole entry): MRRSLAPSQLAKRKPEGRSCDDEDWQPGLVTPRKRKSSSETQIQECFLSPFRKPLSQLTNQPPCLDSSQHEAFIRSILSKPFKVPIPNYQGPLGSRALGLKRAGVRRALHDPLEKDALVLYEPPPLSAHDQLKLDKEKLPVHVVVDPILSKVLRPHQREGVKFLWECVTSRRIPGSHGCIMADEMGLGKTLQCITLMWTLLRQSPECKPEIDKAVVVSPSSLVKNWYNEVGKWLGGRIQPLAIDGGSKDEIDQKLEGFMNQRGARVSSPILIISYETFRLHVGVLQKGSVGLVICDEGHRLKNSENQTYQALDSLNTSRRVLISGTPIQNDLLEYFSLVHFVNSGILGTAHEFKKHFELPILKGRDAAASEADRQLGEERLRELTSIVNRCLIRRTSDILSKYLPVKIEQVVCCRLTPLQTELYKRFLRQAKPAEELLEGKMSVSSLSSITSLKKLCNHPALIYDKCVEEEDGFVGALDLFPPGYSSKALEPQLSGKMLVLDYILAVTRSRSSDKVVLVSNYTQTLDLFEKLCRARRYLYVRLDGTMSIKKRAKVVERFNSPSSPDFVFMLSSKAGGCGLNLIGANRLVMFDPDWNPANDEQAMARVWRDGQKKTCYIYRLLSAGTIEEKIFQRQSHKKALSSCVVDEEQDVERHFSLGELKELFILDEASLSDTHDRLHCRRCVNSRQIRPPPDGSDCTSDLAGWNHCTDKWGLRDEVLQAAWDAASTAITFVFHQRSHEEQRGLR
The experiment in a line: RAD54 Holliday junction migration blockers – biochemical, fluorescence, cherry-picked samples, dose series, confirmation (AID 651657). The test is classed as functional.

In test [7] the target is T4, RNA-binding protein pos-1 (Caenorhabditis elegans, UniProt G5EF15).
T4 sequence (G5EF15 whole entry): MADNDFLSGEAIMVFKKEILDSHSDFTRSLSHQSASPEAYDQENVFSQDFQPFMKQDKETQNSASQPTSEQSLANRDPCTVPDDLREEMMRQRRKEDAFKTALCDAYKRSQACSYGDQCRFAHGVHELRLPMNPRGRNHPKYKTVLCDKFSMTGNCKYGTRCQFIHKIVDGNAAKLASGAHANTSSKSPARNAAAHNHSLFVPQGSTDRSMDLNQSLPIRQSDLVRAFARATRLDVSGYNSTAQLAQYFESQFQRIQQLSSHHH
The test is described as follows: disruptors of C. elegans POS-1 RNA interaction – biochemical, fluorescence polarization, dose response (AID 1964).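 Also: purified POS-1 fused to maltose binding protein made in E. coli; potency of compounds blocking POS-1 binding to fluorescent RNA.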

The target in test [8] is T5, Zinc finger protein mex-5 (Caenorhabditis elegans, UniProt Q9XUB2).
T5 sequence (Q9XUB2 whole entry): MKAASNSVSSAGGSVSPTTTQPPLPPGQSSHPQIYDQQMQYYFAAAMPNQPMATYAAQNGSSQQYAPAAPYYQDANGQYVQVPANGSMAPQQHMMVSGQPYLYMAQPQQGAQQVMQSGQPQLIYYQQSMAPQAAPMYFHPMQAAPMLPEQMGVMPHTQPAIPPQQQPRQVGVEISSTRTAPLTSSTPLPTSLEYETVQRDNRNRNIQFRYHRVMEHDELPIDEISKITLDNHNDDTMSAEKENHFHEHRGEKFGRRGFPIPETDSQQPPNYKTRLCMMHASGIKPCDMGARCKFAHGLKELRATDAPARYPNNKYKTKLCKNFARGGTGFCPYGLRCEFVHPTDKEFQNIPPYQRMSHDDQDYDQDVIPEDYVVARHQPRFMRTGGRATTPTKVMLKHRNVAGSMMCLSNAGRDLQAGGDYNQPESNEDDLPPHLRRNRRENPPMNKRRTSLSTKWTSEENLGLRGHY
The test is described as follows: potency of MEX-5 RNA-binding blockers – biochemical, C. elegans, fluorescence polarization, dose response (AID 1960). Background: Polarisation of emitted light reports the rotation of a fluorescent probe.

For test [9], the target named is Genome polyprotein (dengue virus type 2, UniProt P29990). The test is described as follows: flavivirus cap methylation enzyme inhibition – biochemical, confirmation dose response, primary screen (AID 588689). The test is classed as functional.
For test [10], the target named is T6, High affinity choline transporter 1 (Homo sapiens, UniProt Q9GZV3).
T6 sequence (Q9GZV3 whole entry): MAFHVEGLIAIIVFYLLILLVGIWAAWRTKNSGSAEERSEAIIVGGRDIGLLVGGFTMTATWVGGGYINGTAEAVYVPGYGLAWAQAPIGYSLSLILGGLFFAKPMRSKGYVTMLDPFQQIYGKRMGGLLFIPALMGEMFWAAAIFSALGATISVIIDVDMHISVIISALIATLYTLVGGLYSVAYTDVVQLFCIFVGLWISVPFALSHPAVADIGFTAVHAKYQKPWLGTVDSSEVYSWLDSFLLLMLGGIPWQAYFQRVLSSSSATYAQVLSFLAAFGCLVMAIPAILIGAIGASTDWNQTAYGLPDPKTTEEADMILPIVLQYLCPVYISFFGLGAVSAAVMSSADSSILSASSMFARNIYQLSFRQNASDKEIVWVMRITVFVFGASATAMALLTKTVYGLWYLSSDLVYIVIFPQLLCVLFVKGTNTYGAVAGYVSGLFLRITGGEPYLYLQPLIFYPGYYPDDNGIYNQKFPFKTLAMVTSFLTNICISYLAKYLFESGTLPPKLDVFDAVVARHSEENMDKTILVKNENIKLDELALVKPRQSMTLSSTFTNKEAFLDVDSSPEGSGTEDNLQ
The experiment in a line: human choline transporter blockers, potency – cell-based, 5-point CRC, membrane potential dye, dose response (AID 504840). Format: functional.

Test [11] in a line: activation of miR-122 Renilla sensor silencing – cell-based, Huh7 psiCHECK-miR122, Renilla luciferase, cherry-picked, dose response (AID 651956).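 Also: huh7 hepatoma cells stably carrying a psiCHECK-2 miR-122 sensor plasmid; renilla luciferase signal reporting endogenous miR-122 activity after 48 h compound exposure.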 Format: functional.
The subject of test [12] is Streptococcus. The test is described as follows: GAS UMAA2166 growth inhibition – luminescence, BacTiterGlo, counter-screen for streptokinase expression inhibitor project, dose response (AID 1915).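 Also: potency for reduction of bacterial viability or growth.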 Format: functional, organism-based.
For test [13], the system named is Streptococcus sp. 'group A'. The test is described as follows: Streptococcus pyogenes SK(-)GAS viability under kanamycin – luminescence, BacTiterGlo, confirmation, counter-screen for streptokinase expression inhibitor project, dose response (AID 1900). Format: functional, organism-based. In general terms: Counterscreens check selectivity or assay interference.

A short description of test [14]: Luminescence Cell-Based Dose Response HTS to Identify Activators of Luciferase Translation or Activity in H4 […] Cells. [Related pubchem assays: 1829 (Project Summary), 1814 (Primary HTS)]. Format: functional.
Test [15] relates to H4. The experiment in a line: Luminescence Cell-Based Dose Response HTS to Identify Activators of 5'UTR Stem-Loop Driven Prion Protein mRNA Translation in H4 Neuroglioblastoma Cells. [Related pubchem assays: 1829 (Project Summary), 1814 (Primary HTS)]. Format: functional. Particulars: Homo sapiens.
Test [16] deals with HeLa. The experiment in a line: ATP-based viability loss in HeLa cells – cell-based, CellTiter-Glo luminescence, cherry-pick samples, cytotoxicity control for MITF activator project, dose response (AID 540259). The test is classed as functional. Particulars: Homo sapiens. (In ATP-based viability assays light output follows the ATP content of the culture.)
A short description of test [17]: Luminescence Cell-Based Dose Confirmation HTS to Identify Activators of 5'UTR Stem-Loop Driven Alpha-Synuclein mRNA Translation in H4 Neuroglioblastoma Cells. [Related pubchem assays: 1829 (Project Summary), 1814 (Primary HTS)]. The test is classed as functional.

T2 sequence (P49327 whole entry): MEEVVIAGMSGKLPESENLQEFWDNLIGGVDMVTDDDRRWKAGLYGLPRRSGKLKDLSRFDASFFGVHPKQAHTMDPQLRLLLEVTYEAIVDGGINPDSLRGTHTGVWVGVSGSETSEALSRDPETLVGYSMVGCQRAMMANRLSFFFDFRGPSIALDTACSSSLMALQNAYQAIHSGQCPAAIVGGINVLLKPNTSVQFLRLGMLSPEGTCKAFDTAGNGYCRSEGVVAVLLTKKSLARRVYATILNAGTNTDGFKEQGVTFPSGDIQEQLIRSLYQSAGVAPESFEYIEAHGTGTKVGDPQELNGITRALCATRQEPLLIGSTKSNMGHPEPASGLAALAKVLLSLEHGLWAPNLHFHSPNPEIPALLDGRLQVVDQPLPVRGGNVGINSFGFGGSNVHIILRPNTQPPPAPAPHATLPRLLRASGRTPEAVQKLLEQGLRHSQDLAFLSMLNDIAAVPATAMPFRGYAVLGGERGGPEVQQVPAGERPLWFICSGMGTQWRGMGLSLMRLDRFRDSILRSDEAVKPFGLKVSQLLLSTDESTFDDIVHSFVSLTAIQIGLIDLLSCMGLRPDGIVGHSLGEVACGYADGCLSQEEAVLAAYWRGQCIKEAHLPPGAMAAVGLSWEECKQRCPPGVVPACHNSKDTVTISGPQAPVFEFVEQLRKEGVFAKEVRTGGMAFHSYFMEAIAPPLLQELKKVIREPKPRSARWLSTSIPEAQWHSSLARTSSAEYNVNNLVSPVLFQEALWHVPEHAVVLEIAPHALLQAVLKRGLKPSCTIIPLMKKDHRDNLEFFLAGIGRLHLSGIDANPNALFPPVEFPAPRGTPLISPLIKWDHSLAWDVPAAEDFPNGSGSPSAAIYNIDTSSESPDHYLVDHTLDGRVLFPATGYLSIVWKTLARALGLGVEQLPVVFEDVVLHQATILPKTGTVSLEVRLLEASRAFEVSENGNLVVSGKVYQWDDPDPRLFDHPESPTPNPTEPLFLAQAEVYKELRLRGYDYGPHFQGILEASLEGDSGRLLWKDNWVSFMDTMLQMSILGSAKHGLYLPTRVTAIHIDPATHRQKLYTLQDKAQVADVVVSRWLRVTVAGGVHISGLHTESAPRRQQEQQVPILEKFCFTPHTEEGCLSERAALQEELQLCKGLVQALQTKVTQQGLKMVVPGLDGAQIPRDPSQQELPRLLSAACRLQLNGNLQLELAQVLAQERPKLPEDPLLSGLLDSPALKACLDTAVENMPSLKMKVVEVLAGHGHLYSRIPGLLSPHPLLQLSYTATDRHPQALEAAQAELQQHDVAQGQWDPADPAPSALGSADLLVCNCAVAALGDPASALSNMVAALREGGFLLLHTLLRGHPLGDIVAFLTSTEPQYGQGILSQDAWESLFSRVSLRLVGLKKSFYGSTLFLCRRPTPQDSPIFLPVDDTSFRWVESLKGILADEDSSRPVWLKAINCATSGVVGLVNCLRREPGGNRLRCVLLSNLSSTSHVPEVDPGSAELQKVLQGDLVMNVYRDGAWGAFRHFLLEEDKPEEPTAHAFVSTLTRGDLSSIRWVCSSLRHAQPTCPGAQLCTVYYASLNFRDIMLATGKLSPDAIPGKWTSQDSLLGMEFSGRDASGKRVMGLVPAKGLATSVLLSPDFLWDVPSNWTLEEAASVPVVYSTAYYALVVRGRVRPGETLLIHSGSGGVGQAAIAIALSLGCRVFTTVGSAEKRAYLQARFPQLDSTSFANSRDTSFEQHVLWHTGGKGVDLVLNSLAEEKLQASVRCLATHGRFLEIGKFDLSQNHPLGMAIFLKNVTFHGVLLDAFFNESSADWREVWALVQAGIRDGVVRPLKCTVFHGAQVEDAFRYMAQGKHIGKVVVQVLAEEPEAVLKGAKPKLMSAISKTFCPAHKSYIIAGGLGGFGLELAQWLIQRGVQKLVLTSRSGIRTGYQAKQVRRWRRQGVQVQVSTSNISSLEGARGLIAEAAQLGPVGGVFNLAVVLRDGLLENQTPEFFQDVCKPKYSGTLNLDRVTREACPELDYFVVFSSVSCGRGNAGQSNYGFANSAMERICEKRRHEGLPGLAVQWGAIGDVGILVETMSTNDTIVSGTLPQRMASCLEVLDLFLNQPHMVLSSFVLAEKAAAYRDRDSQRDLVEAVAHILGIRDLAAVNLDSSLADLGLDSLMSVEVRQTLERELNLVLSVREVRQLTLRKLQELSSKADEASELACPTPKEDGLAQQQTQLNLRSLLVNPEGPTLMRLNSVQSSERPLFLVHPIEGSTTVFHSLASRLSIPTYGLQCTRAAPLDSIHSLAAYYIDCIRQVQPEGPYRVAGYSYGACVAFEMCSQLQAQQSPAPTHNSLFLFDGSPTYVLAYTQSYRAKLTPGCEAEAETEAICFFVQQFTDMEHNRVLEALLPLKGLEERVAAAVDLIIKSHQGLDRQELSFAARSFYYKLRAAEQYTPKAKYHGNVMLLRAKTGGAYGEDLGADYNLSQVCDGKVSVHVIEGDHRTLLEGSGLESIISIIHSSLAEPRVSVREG
Chain of Genome polyprotein (P29990 2492-3391 limits assumed): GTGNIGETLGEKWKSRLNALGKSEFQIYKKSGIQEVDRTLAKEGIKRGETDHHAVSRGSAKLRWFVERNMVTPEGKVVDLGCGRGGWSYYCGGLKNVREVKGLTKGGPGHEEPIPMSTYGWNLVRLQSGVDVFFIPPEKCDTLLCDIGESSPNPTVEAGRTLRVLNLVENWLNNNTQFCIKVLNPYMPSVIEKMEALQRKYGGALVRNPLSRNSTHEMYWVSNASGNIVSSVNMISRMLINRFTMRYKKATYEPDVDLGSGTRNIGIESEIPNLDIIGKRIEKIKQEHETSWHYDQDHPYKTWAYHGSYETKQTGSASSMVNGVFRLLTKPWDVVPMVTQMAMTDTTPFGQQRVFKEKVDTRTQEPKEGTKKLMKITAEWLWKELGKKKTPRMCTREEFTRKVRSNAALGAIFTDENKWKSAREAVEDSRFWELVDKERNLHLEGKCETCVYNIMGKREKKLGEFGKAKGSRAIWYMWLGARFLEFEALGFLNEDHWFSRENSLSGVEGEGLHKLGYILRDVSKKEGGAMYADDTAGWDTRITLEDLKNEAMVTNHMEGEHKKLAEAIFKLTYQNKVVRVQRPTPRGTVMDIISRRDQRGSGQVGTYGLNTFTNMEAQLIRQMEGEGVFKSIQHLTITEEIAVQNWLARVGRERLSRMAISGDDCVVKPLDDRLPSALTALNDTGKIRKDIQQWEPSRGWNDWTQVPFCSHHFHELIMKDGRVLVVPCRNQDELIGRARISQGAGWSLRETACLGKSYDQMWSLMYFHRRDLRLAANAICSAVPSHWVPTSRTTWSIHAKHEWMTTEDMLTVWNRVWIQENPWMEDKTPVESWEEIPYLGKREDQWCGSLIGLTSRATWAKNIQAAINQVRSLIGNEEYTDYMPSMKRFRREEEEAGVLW

Consider `CC(=O)c1ccc(N2CCN(S(=O)(=O)c3c(C(=O)N4CCCC4)c(C)n(C)c3C)CC2)cc1`, for which, in [1], the AC50 is 11.6 µM (active).
As for `C[C@H](CO)N1C[C@H](C)[C@H](CN(C)S(=O)(=O)c2ccc(F)cc2)Oc2c(NC(=O)CCCCCC(=O)Nc3ccccc3N)cccc2C1=O`, in [2], the half-maximal activity concentration (AC50) is 2.58 µM (active).
For the compound `CC[C@H](C)/C=C(C)/C=C/C1=CC2=C(Cl)C(=O)[C@](C)(OC(C)=O)C(=O)C2=CO1` [SCLEROTIORIN], the AC50 in test [3] is 0.8 µM (active).
Take `CCn1cc(C(=O)NCCC2=CCCCC2)c(=O)c2cc(S(=O)(=O)N(C)C)ccc21`: the results for the IC50 in test [4] and in test [5] were 4.69 µM (active) and 2.74 µM (active), respectively.
Take `COc1ccc2nc(C)cc(Nc3ccc(C)cc3)c2c1`: the concentration at half-maximal activity (AC50) in [6] is 19.4 µM (active).
For `CC1=NOC(=O)/C1=C\c1ccc2c(c1)OCO2`, the EC50 in test [7] and in test [8] was > 300 µM (not active) each time. For the same compound, in test [9], the half-inhibitory concentration (IC50) is 7.17 µM (active).
On to `CCOc1cc2[nH]c(=S)n(Cc3ccc(C(=O)NCCCN(CC)CC)cc3)c(=O)c2cc1OCC`, for which, in test [6], the half-maximal activity concentration (AC50) is 40.1 µM (active).
In the case of `CC(C)(C)N(Cc1ccccc1)C(=O)COC(=O)c1ccc([N+](=O)[O-])o1`, the results for the IC50 in test [4] and in test [5] were 16.2 µM (active) and 12.2 µM (active), respectively.
For `C[C@@H]1CN([C@@H](C)CO)C(=O)c2cc(N(C)C)ccc2O[C@@H]1CN(C)Cc1ccc(C(=O)Nc2ccccc2N)cc1`, the AC50 in [2] is 3.57 µM (active).
For the compound `C[C@@H]1CN([C@H](C)CO)C(=O)c2cccc(NS(=O)(=O)c3ccc(Cl)cc3)c2O[C@@H]1CN(C)Cc1ccc(C(=O)Nc2ccccc2N)cc1`, the half-maximal activity concentration (AC50) in [2] was 9.17 µM (active).
Turning to `O=[N+]([O-])c1ccc(S(=O)(=O)Nc2nc(-c3ccccc3)cs2)cc1`, the IC50 is 4.57 µM (active) in [10] and 59.6 µM (active) in test [9].
For `O=C(c1ccncc1)N1CC[C@H]2[C@H](CO)Nc3ccc(Br)cc3[C@H]21`, the AC50 in [1] is 18.5 µM (active).
As for `Cc1nnc(NC(=O)CSc2nc(C(C)C)nc3sc(C)c(C)c23)s1`, the AC50 in test [11] is 34.8 µM (active).
In the case of `Cc1cc(/C=C2\SC(=S)NC2=O)c(C)n1-c1ccc(O)cc1`, the figures for the EC50 in test [12] and in test [13] were 2.36 µM (active) and 1.69 µM (active), respectively. In addition, in [3], the AC50 was 15.5 µM (active).
Take `O=C(CNc1ccccc1OC(F)F)N1CCc2ccccc21`: the results for the concentration for a half-maximal effect (EC50) in [14], in [15] and in test [17] were 6 µM (active), 4.45 µM (active) and 0.103 µM (active), respectively. For the same compound, the AC50 in test [16] is 72.1 µM (active).
Regarding `CN1c2ccc(-c3ccccc3)cc2[C@H]2[C@H](CCN2C(=O)c2ccccc2F)[C@H]1CO`, the half-maximal activity concentration (AC50) in test [1] is 0.183 µM (active).
For the compound `C[C@H]1CN([C@@H](C)CO)C(=O)Cc2cc(NC(=O)Nc3ccc(C(F)(F)F)cc3)ccc2O[C@H]1CN(C)Cc1ccc(Cl)c(Cl)c1`, the concentration at half-maximal activity (AC50) in [2] was 2.92 µM (active).
Take `CCOC(=O)c1ccc(NC(=O)CC2C(=O)OCCN2CC)cc1` (configuration not stated): the half-maximal activity concentration (AC50) in test [3] was 4.65 µM (active).
With `C[C@@H]1CN([C@H](C)CO)S(=O)(=O)c2ccc(C#CC3CC3)cc2O[C@@H]1CN(C)C(=O)c1cccc(F)c1`, the AC50 in test [11] is 22.3 µM (active).
Consider `O=C(Nc1ccc(Cc2ccncc2)cc1)c1cc([N+](=O)[O-])ccc1N1CCOCC1`, for which the IC50 was 1.53 µM (active) in [4] and 1.24 µM (active) in [5].
`COCC(=O)N(C)C[C@H]1Oc2cc(C#Cc3cccnc3)ccc2S(=O)(=O)N([C@H](C)CO)C[C@H]1C`: the AC50 in test [11] was 3.31 µM (active).

Usually AC50 stands for the concentration at which the activity in the assay is half-maximal. By IC50 is commonly meant the concentration that gives 50% inhibition. In general, EC50 refers to the midpoint of the concentration-response curve.
